Entries after “also recorded” stand apart in the source; their conditions may differ.
Key:
whole human blood = experiment: Dose-dependent prothrombin time (PT) in whole blood; type: biochemical; conditions: 1, 2, 3, 4 uM; 2 h room temperature; citrated whole human blood
Protocol: 139. […] PT time was measured using RecombiPlasTin 2G for quantitative determination in human citrated plasma of PT and Fibrinogen on an ACLTOP coagulation analyzer manufactured by Instrumentation Laboratory (Bedford, MA, USA). To assess the activity of the aptamers in a dose-dependent manner in whole blood, human blood samples were collected in citrate-treated tubes. The blood samples were then incubated at room temperature for 2 h in the absence or presence of varying concentrations of the thrombin aptamers. To measure the Prothrombin Time (PT) on the ACLTOP coagulation analyzer, plasma was obtained by centrifuging the samples at 1500×g for 10 min at 4° C. For the dose dependence study, concentrations of 1 uM, 2 uM, 3 uM, and 4 uM of AYA1809002 and AYA1809004 were utilized.
(§1) 156. To facilitate future applications, gaining a comprehensive understanding of the activity of aptamers in whole blood is of paramount importance. To assess their effectiveness, we tested the selected aptamers at various concentrations in whole blood to evaluate their impact on Factor II activity and PT time. Human blood samples were collected in citrate- treated tubes. The blood samples were then incubated at room temperature for 2 h in the absence or presence of varying concentrations of thrombin aptamers. […]

Factor II activity = biological target: T1, Factor II activity (Homo sapiens, UniProt P00734); experiment: Dose-dependent Factor II activity in whole blood; type: biochemical; conditions: 1, 2, 3, 4 uM; 2 h room temperature; citrated whole human blood
T1 construct: tissue Rockland Immunochemicals, Inc R214-0050; host or cells: human citrated plasma / whole blood
Protocol: 138. […] Factor II activity was measured using human plasma immunodepleted of Factor II for the quantitative determination of Factor II activity in citrated plasma based on the prothrombin time (PT) assay, for which an ACLTOP coagulation analyzer manufactured by Instrumentation Laboratory (Bedford, MA, USA) was used. To evaluate the dose-dependent activity of the aptamers in whole blood, human blood samples were collected in citrate-treated tubes. Subsequently, the blood samples were incubated at room temperature for 2 h in both the absence and presence of various concentrations of thrombin aptamers. To measure the Factor II activity using the ACLTOP coagulation analyzer, plasma was separated from the cells by centrifugation at 1500×g for 10 min at 4° C. For the dose-dependent study, concentrations of 1 uM, 2 uM, 3 uM, and 4 uM of AYA1809002 and AYA1809004 were utilized.
as §1

[1] = biological target: T2, human alpha-thrombin protein (Homo sapiens, UniProt P00734); experiment: ELISA-based binding assay of biotinylated thrombin aptamers to thrombin protein; conditions: for Kd: ELISA-based competition assay, 5′ biotin aptamer with or without 100-fold excess non-biotinylated aptamer, estimated, read-out: binding affinity to thrombin, dissociation constant (Kd); for binding to immobilized human thrombin (absorbance at 450 nm): top nine enriched aptamers, biotinylated, FIG. 2A
T2 construct: Native human alpha-thrombin protein; purchased ThermoFisher Scientific RP-43100; host or cells: native protein
Protocol: 135. Native human alpha-thrombin protein (ThermoFisher Scientific, cat #RP-43100, Waltham, MA, USA) was added to each well of a 96-well plate (Nunc MaxiSorp flat-bottom 96-well plates, ThermoFisher Scientific, cat #44-2404-21, Waltham, MA, USA) at a concentration of 250 nM in Tris-buffered saline with a volume of 100 μL per well. The plate was then incubated at 4° C. for 16 h to allow the wells to become coated with thrombin. After removing the thrombin solution, the wells were washed and blocked using blocking buffer (20 mM Tris, 150 mM NaCl pH 7.5, 2% BSA, 0.1% Tween 20 and 100 μg/mL of sheared salmon sperm DNA) for a 1 h duration. Next, biotinylated aptamers at the indicated concentrations in a volume of 100 μL were added to the wells in an incubation buffer (20 mM Tris, 150 mM NaCl pH 7.5, 0.1% BSA, 0.1% Tween 20 and 100 μg/mL of sheared salmon sperm DNA) and incubated for 1 h at room temperature. In the competition binding assay, unlabeled aptamers were added along with the biotinylated aptamers, with the unlabeled aptamers being present in a 100-fold excess compared to the biotinylated aptamers. Following three washing steps with wash buffer (20 mM Tris, 150 mM NaCl pH 7.5, 0.1% BSA and 0.1% Tween 20), streptavidin-HRP (ThermoFisher Scientific, cat #21130, Waltham, MA, USA) was added at a dilution of 1:5000 in the incubation buffer. The plate was washed again three times to remove any unbound reagents. The bound biotinylated aptamers were then detected using 3,3′,5,5′-Tetramethylbenzidine (TMB) substrate (ThermoFisher Scientific, cat #34021, Waltham, MA, USA) following the manufacturer's instructions.

human citrated plasma = experiment: Prothrombin time (PT) assay in human citrated plasma; type: biochemical; conditions: 2 uM, 2 h, versus untreated control
Protocol: Plasma was prepared by centrifugation for 10 min at 2000×g. In vitro activity assays were performed on ACLTOP analyzer manufactured by Instrumentation Laboratory, which is a type of coagulation analyzer commonly used in clinical laboratories to measure clotting times and assess coagulation parameters. The ACLTOP analyzer is designed to perform a wide range of coagulation tests, including Factor II activity, prothrombin time (PT), activated partial thromboplastin time (APTT), fibrinogen, and other related assays. ACLTOP analyzer uses HemosIL reagents developed by Instrumentation Laboratory company (Bedford, MA, USA) to perform coagulation tests.
PT time was measured using RecombiPlasTin 2G for quantitative determination in human citrated plasma of PT and Fibrinogen on an ACLTOP coagulation analyzer manufactured by Instrumentation Laboratory (Bedford, MA, USA). To assess the activity of the aptamers in a dose-dependent manner in whole blood, human blood samples were collected in citrate-treated tubes. The blood samples were then incubated at room temperature for 2 h in the absence or presence of varying concentrations of the thrombin aptamers. To measure the Prothrombin Time (PT) on the ACLTOP coagulation analyzer, plasma was obtained by centrifuging the samples at 1500×g for 10 min at 4° C. For the dose dependence study, concentrations of 1 uM, 2 uM, 3 uM, and 4 uM of AYA1809002 and AYA1809004 were utilized.
Modified aptamers chemically crosslinked with TAG, PEG, and cholesterol entities at the 3′ end, were purchased from IDT (Integrated DNA Technologies, Coralville, IA, USA). The impact of modified AYA1809002 and AYA1809004 aptamers on Factor II activity, PT, and APTT was evaluated using the same protocol as was used for the unmodified aptamers. Additionally, the potential for reversal was investigated using the respective reverse complement for each aptamer.

“AYA1809002: ssDNA thrombin aptamer GCGGTGTTGCTGGGGTTGGGAGGTTGGAGGAAGCAATCGC” was tested, and the “effect on prothrombin time (PT) in whole blood” value (whole human blood) was “corresponding increase in prothrombin time; also recorded: corresponding increase in PT”, the “effect on Factor II activity in whole blood” value (Factor II activity) was “dose-dependent decrease in Factor II activity” and the Kd [1] was 0.01 µM. For the same substance, the “binding to immobilized human thrombin (absorbance at 450 nm)” value [1] was “strong binding capabilities” and the “increase in PT time” value (human citrated plasma) was “three-fold increases”.
In the case of “AYA1809004: ssDNA thrombin aptamer TCGTCAAGGTACGGTTGGGGGGGTGGGTGTTGACGTTGAA (DNA, backbone not given here)”, the “effect on prothrombin time (PT) in whole blood” value (whole human blood) is reported as “corresponding increase in prothrombin time”, the “effect on Factor II activity in whole blood” value (Factor II activity) is reported as “dose-dependent decrease in Factor II activity” and the Kd [1] is reported as 0.013 µM. For the same substance, the “binding to immobilized human thrombin (absorbance at 450 nm)” value [1] was “strong binding capabilities” and the “increase in PT time” value (human citrated plasma) was “three-fold increases”.
